# Experimental data from US20260256792A1, “TREATMENT OF CHRONIC SPONTANEOUS URTICARIA BY ADMINISTERING (R)-2-[3-[4-AMINO-3-(2-FLUORO-4-PHENOXY-PHENYL)PYRAZOLO[3,4-D]PYRIMIDIN-1-YL]PIPERIDINE-1-CARBONYL]-4-METHYL-4-[4-(OXETAN-3-YL)PIPERAZIN-1-YL]PENT-2-ENENITRILE” (priority 2023, published 2026).
# Tested on: moderate-to-severe chronic spontaneous urticaria (CSU)
# Assay: Phase 2 CSU study: urticaria activity score over 7 days (UAS7)
# Assay type: in vivo, human
# Conditions: for RRD (%) for rilzabrutinib vs. placebo, UAS7 = 0 / RRD (%) for rilzabrutinib vs. placebo, UAS7 ≤6 / Responder n (%), UAS7 = 0 / Responder n (%), UAS7 ≤6 / Imputed non-responder n (%), UAS7 = 0 / Imputed non-responder n (%), UAS7 ≤6 / Non-responder n (%), UAS7 = 0 / Non-responder n (%), UAS7 ≤6 / OR for rilzabrutinib vs. placebo, UAS7 = 0 / OR for rilzabrutinib vs. placebo, UAS7 ≤6: ITT, 400 mg TID; for UAS7 Post-baseline Mean (SD): Omalizumab-Naïve Population with Outlier Removed
# Text: The study comprises a 12 week, randomized, double-blind, placebo-controlled, multi-center, dose-ranging efficacy and safety phase, followed by a 40 week open label extension (OLE) phase (see FIG. 1). The study consists of three phases and an optional OLE phase. […] Clinically, CSU is characterized by the spontaneous and recurrent appearance of pruritic hives. The proposed primary endpoints were the UAS7 at Week 12 in EU and EU reference countries and the ISS7 in the US. Regardless of where a participant was from, all assessments were the same. The UAS7 score is a composite score containing both the HSS7 and the ISS7. This allowed a global assessment of the two key components of urticaria: hives and itch. […] The UAS is a validated PRO measure. […] The daily UAS scores range from 0 to 6 point/day. […] Patients were to complete the UAS using the e-diary. […] The following secondary endpoints were to be analyzed using the same approach as for the primary endpoint: • Change from baseline in UAS7 at Week 4 • Change from baseline in UAS7 at Week 12 (for US and US reference countries) • Change from baseline in ISS7 at Week 12 (except US and US reference countries) • Change from baseline in HSS7 at Week 12 The following responder secondary endpoints were to be analyzed using the Cochran-Mantel-Haenszel test adjusted by region: • Proportion of participants with UAS7<6 at Week 12 • Proportion of participants with UAS7=0 at Week 12 Participants who received selected prohibited medications and/or rescue medications were to be considered as non-responders for time points after the medication usage. For other participants, all available data including those collected during the off-treatment period were to be used to determine the responder/non-responder status. Missing data were to be considered as non-responders.
smiles,measurement,setting,value
"CC(C)(C=C(C#N)C(=O)N1CCC[C@@H](n2nc(-c3ccc(Oc4ccccc4)cc3F)c3c(N)ncnc32)C1)N1CCN(C2COC2)CC1 [rilzabrutinib, (R)-2-[3-[4-amino-3-(2-fluoro-4-phenoxy-phenyl)pyrazolo[3,4-d]pyrimidin-1-yl]piperidine-1-carbonyl]-4-methyl-4-[4-(oxetan-3-yl)piperazin-1-yl]pent-2-enenitrile]","RRD (%) for rilzabrutinib vs. placebo, UAS7 = 0",Week 7,6.9 %
same,"RRD (%) for rilzabrutinib vs. placebo, UAS7 ≤6",Week 7,16.1 %
same,"Responder n (%), UAS7 = 0",Week 7,4 (9.8) n (%)
same,"Responder n (%), UAS7 ≤6",Week 7,11 (26.8) n (%)
same,"Imputed non-responder n (%), UAS7 = 0",Week 8,8 (19.5) n (%)
same,"Imputed non-responder n (%), UAS7 ≤6",Week 8,8 (19.5) n (%)
same,"Non-responder n (%), UAS7 = 0",Week 8,37 (90.2) n (%)
same,"Non-responder n (%), UAS7 ≤6",Week 8,28 (68.3) n (%)
same,"OR for rilzabrutinib vs. placebo, UAS7 = 0",Week 8,1.697
same,"OR for rilzabrutinib vs. placebo, UAS7 ≤6",Week 8,2.257
same,"RRD (%) for rilzabrutinib vs. placebo, UAS7 = 0",Week 8,3.2 %
same,"RRD (%) for rilzabrutinib vs. placebo, UAS7 ≤6",Week 8,12.7 %
same,"Responder n (%), UAS7 = 0",Week 8,4 (9.8) n (%)
same,"Responder n (%), UAS7 ≤6",Week 8,13 (31.7) n (%)
same,"Imputed non-responder n (%), UAS7 = 0",Week 9,7 (17.1) n (%)
same,"Imputed non-responder n (%), UAS7 ≤6",Week 9,7 (17.1) n (%)
same,"Non-responder n (%), UAS7 = 0",Week 9,37 (90.2) n (%)
same,"Non-responder n (%), UAS7 ≤6",Week 9,26 (63.4) n (%)
same,"OR for rilzabrutinib vs. placebo, UAS7 = 0",Week 9,1.117
same,"OR for rilzabrutinib vs. placebo, UAS7 ≤6",Week 9,4.680
same,"RRD (%) for rilzabrutinib vs. placebo, UAS7 = 0",Week 9,0.8 %
same,"RRD (%) for rilzabrutinib vs. placebo, UAS7 ≤6",Week 9,22.0 %
same,"Responder n (%), UAS7 = 0",Week 9,4 (9.8) n (%)
same,"Responder n (%), UAS7 ≤6",Week 9,15 (36.6) n (%)
same,"Imputed non-responder n (%), UAS7 = 0",Week 10,7 (17.1) n (%)
same,"Imputed non-responder n (%), UAS7 ≤6",Week 10,7 (17.1) n (%)
same,"Non-responder n (%), UAS7 = 0",Week 10,35 (85.4) n (%)
same,"Non-responder n (%), UAS7 ≤6",Week 10,27 (65.9) n (%)
same,"OR for rilzabrutinib vs. placebo, UAS7 = 0",Week 10,1.210
same,"OR for rilzabrutinib vs. placebo, UAS7 ≤6",Week 10,2.074
same,"RRD (%) for rilzabrutinib vs. placebo, UAS7 ≤6",Week 10,12.9 %
same,"Responder n (%), UAS7 = 0",Week 10,6 (14.6) n (%)
same,"Responder n (%), UAS7 ≤6",Week 10,14 (34.1) n (%)
same,"Imputed non-responder n (%), UAS7 = 0",Week 11,6 (14.6) n (%)
same,"Imputed non-responder n (%), UAS7 ≤6",Week 11,6 (14.6) n (%)
same,"Non-responder n (%), UAS7 = 0",Week 11,34 (82.9) n (%)
same,"Non-responder n (%), UAS7 ≤6",Week 11,26 (63.4) n (%)
same,"OR for rilzabrutinib vs. placebo, UAS7 = 0",Week 11,3.449
same,"OR for rilzabrutinib vs. placebo, UAS7 ≤6",Week 11,2.322
same,"RRD (%) for rilzabrutinib vs. placebo, UAS7 = 0",Week 11,10.4 %
same,"RRD (%) for rilzabrutinib vs. placebo, UAS7 ≤6",Week 11,15.0 %
same,"Responder n (%), UAS7 = 0",Week 11,7 (17.1) n (%)
same,"Responder n (%), UAS7 ≤6",Week 11,15 (36.6) n (%)
same,"Imputed non-responder n (%), UAS7 = 0",Week 12,11 (26.8) n (%)
same,"Imputed non-responder n (%), UAS7 ≤6",Week 12,11 (26.8) n (%)
same,"Non-responder n (%), UAS7 = 0",Week 12,31 (75.6) n (%)
same,"Non-responder n (%), UAS7 ≤6",Week 12,26 (63.4) n (%)
same,"OR for rilzabrutinib vs. placebo, UAS7 = 0",Week 12,1.995
same,"OR for rilzabrutinib vs. placebo, UAS7 ≤6",Week 12,3.721
same,"RRD (%) for rilzabrutinib vs. placebo, UAS7 = 0",Week 12,9.4 %
same,"RRD (%) for rilzabrutinib vs. placebo, UAS7 ≤6",Week 12,20.9 %
same,"Responder n (%), UAS7 = 0",Week 12,10 (24.4) n (%)
same,"Responder n (%), UAS7 ≤6",Week 12,15 (36.6) n (%)
same,UAS7 Post-baseline Mean (SD),"400 mg BID, Week 1",19.77 (11.32)
same,UAS7 Post-baseline Mean (SD),"400 mg BID, Week 2",19.59 (10.86)
same,UAS7 Post-baseline Mean (SD),"400 mg BID, Week 3",17.71 (11.91)
same,UAS7 Post-baseline Mean (SD),"400 mg BID, Week 4",15.92 (11.71)
same,UAS7 Post-baseline Mean (SD),"400 mg BID, Week 5",17.22 (13.36)
same,UAS7 Post-baseline Mean (SD),"400 mg BID, Week 6",17.02 (12.76)
same,UAS7 Post-baseline Mean (SD),"400 mg BID, Week 7",15.55 (11.97)
same,UAS7 Post-baseline Mean (SD),"400 mg BID, Week 8",13.98 (13.06)
same,UAS7 Post-baseline Mean (SD),"400 mg BID, Week 9",14.64 (14.43)
same,UAS7 Post-baseline Mean (SD),"400 mg BID, Week 10",15.22 (14.36)
same,UAS7 Post-baseline Mean (SD),"400 mg BID, Week 11",15.06 (13.80)
same,UAS7 Post-baseline Mean (SD),"400 mg BID, Week 12",15.61 (13.91)
same,UAS7 Post-baseline Mean (SD),"400 mg QPM, Week 1",23.81 (8.78)
